The subject of data set [1] is Mus musculus. In words: Effect on social interaction in Oprm1+/+ mouse model of autism spectrum disorders assessed as number of following episodes at 10 mg/kg, ip pre-treated before open-field test for 10 mins. Type of data set: ADME, organism-based. The following applies: in vivo.
For data set [2], the system named is Mus musculus. In words: Effect on social interaction in Oprm1+/+ mouse model of autism spectrum disorders assessed as mean duration of nose contacts at 10 mg/kg, ip pre-treated before open-field test for 10 mins. Format: ADME, organism-based. Conditions: in vivo.
Data set [3] addresses T1, Vasopressin V1a receptor (Homo sapiens, UniProt P37288). The data set is described as follows: Antagonist activity at human V1a receptor expressed in HEK293FT cells assessed as inhibition of AVP-induced response incubated for 30 mins by beta-arrestin recruitment assay. Format: functional, cell-based.
Data set [4] relates to Mus musculus. In words: Improvement in social interaction in Oprm1-/- mouse model of autism spectrum disorders assessed as suppression of grooming episodes occurring after social contact at 20 mg/kg, ip pre-treated before open-field test for 10 mins. Type of data set: functional, organism-based.
The target of data set [5] is T1, Vasopressin V1a receptor. In words: Antagonist activity at human V1a receptor expressed in HEK293FT cells assessed as inhibition of AVP-induced calcium release by Aequorin based assay. Type of data set: functional, cell-based.
Data set [6] deals with T2, Vasopressin V1b receptor (Homo sapiens, UniProt P47901).
T2 sequence (P47901 whole entry): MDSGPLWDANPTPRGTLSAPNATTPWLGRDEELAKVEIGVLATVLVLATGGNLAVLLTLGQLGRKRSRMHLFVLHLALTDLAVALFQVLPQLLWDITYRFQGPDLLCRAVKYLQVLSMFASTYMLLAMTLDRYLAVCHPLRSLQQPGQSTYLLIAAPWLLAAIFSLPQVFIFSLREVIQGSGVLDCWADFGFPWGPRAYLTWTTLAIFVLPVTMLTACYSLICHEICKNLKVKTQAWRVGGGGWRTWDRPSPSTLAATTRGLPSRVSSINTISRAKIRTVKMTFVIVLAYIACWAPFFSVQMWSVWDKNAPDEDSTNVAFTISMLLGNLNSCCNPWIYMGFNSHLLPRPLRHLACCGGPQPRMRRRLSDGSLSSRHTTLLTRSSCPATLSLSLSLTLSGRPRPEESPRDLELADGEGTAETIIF
Description: Agonist activity at human V1b receptor expressed in HEK293FT cells incubated for 30 mins by beta-arrestin recruitment assay

For data set [7], the system named is Mus musculus. In words: Improvement in social interaction in Oprm1-/- mouse model of autism spectrum disorders assessed as restoration of time spent in nose contacts at 20 mg/kg, ip pre-treated before open-field test for 10 mins. Format: functional, organism-based.
Data set [8] deals with Mus musculus. In words: (§1) Effect on social interaction in Oprm1+/+ mouse model of autism spectrum disorders assessed as number of nose contacts at 10 mg/kg, ip pre-treated before open-field test for 10 mins. Format: ADME, organism-based. Conditions: in vivo.
For data set [9], the system named is Mus musculus. The data set is described as follows: Improvement in social interaction in Oprm1-/- mouse model of autism spectrum disorders assessed as restoration of mean duration of nose contacts at 10 mg/kg, ip pre-treated before open-field test for 10 mins. Format: functional, organism-based.
The test system of data set [10] is Mus musculus. The data set is described as follows: Effect on social interaction in Oprm1+/+ mouse model of autism spectrum disorders assessed as grooming episodes occurring after social contact at 10 mg/kg, ip pre-treated before open-field test for 10 mins. Type of data set: ADME, organism-based. Conditions: in vivo.
Data set [11] addresses T1, Vasopressin V1a receptor.
Description: Agonist activity at human V1a receptor expressed in HEK293FT cells incubated for 30 mins by beta-arrestin recruitment assay
The target of data set [12] is T3, Oxytocin receptor (Homo sapiens) (UniProt P30559).
T3 sequence (whole entry): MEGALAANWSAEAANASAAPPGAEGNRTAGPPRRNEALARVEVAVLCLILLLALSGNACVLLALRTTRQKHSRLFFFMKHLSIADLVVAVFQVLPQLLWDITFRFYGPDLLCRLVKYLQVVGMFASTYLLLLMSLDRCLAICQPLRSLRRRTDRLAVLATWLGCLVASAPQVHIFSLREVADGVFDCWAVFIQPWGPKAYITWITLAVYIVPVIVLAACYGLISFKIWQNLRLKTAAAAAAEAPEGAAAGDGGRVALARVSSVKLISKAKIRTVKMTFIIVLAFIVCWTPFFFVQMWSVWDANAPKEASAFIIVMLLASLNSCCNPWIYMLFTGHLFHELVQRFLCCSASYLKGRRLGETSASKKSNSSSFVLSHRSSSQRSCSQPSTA
In words: Antagonist activity at human OTR expressed in HEK cells assessed as inhibition of OT-induced intracellular calcium flux at 1 uM incubated for 45 mins by Indo1-AM dye based fluorescence assay relative to OT. Type of data set: functional, cell-based.

In data set [13] the target is T4, Vasopressin V2 receptor (Homo sapiens, UniProt P30518). The data set is described as follows: Agonist activity at human V2 receptor expressed in HEK293FT cells incubated for 30 mins by beta-arrestin recruitment assay relative to AVP. Type of data set: functional, cell-based.
T4 sequence (P30518 whole entry): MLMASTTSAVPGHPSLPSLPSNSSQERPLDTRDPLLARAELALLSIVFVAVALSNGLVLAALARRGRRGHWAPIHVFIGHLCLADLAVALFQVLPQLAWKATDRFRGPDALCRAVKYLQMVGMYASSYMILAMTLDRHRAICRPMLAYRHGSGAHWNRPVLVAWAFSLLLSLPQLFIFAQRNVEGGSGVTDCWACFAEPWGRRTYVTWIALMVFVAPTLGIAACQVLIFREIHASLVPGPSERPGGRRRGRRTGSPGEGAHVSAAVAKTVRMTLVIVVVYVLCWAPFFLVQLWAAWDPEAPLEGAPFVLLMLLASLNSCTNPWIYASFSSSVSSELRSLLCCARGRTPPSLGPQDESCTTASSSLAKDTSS
Data set [14] deals with Mus musculus. The data set is described as §1. Type of data set: ADME, organism-based. The following applies: in vivo. The source holds these as a separate data set.
The nature of data set [15]: AUC in brain of CD1 mouse at 10 mg/kg, ip measured over 15 mins to 240 mins by UHPLC-MS/MS method. Format: ADME, organism-based. Set-up: dose 10 mg/kg, time upper 4 hr, time lower 0.25 hr, route intraperitoneal. The following applies: in vivo.
Data set [16] has as its target T1, Vasopressin V1a receptor. In words: Displacement of DY647 from SNAP-tagged V1A receptor (unknown origin) expressed in HEK293 cells by TR-FRET assay. Type of data set: cell-based.
The target of data set [17] is T3, Oxytocin receptor (Homo sapiens). The data set is described as follows: Agonist activity at human OTR expressed in HEK cells assessed as increase in intracellular calcium flux incubated for 45 mins by Indo1-AM dye based fluorescence assay relative to OT. Format: functional, cell-based.
In data set [18] the target is T4, Vasopressin V2 receptor. In words: Agonist activity at human V2 receptor expressed in HEK293FT cells assessed as stimulation of calcium release by Aequorin based assay. Type of data set: functional, cell-based.
For data set [19], the target named is T2, Vasopressin V1b receptor. The data set is described as follows: Antagonist activity at human V1b receptor expressed in HEK293FT cells assessed as inhibition of AVP-induced response incubated for 30 mins by beta-arrestin recruitment assay. Type of data set: functional, cell-based.
For data set [20], the target named is T2, Vasopressin V1b receptor. In words: Antagonist activity at human V1b receptor expressed in HEK293FT cells assessed as inhibition of AVP-induced calcium release by Aequorin based assay. Type of data set: functional, cell-based.
For data set [21], the target named is T5, Oxytocin receptor (Homo sapiens, UniProt P30559).
T5 sequence (P30559 whole entry): T3 sequence (whole entry)
In words: Agonist activity at human OTR receptor expressed in HEK293FT cells incubated for 30 mins by beta-arrestin recruitment assay. Type of data set: functional, cell-based.

A short description of data set [22]: Lipophilicity, log D of the compound. Format: physicochemical. Conditions: octanol/water.
For data set [23], the target named is T6, Oxytocin receptor (Mus musculus, UniProt P97926).
T6 sequence (P97926 whole entry): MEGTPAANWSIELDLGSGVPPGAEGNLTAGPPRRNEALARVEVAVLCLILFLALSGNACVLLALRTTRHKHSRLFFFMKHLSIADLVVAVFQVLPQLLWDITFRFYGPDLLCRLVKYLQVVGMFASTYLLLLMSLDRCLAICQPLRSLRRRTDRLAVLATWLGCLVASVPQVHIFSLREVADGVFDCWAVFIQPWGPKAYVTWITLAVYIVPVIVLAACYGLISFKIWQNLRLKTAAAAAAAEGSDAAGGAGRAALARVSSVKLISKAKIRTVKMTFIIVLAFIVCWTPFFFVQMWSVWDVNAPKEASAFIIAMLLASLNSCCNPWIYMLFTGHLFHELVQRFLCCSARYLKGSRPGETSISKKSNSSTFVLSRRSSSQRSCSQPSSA
The data set is described as follows: Agonist activity at mouse OTR receptor expressed in HEK293FT cells assessed as stimulation of calcium release by Aequorin based assay. Format: functional, cell-based.

For data set [24], the system named is Mus musculus. The data set is described as follows: Improvement in social interaction in Oprm1-/- mouse model of autism spectrum disorders assessed as restoration of number of following episodes at 10 mg/kg, ip pre-treated before open-field test for 10 mins. Format: functional, organism-based.

The structures appear in SMILES notation. Activity calls are given as the source filed them. The calls are words filed in the database; no cut-off is given here.

T1 sequence (P37288 whole entry): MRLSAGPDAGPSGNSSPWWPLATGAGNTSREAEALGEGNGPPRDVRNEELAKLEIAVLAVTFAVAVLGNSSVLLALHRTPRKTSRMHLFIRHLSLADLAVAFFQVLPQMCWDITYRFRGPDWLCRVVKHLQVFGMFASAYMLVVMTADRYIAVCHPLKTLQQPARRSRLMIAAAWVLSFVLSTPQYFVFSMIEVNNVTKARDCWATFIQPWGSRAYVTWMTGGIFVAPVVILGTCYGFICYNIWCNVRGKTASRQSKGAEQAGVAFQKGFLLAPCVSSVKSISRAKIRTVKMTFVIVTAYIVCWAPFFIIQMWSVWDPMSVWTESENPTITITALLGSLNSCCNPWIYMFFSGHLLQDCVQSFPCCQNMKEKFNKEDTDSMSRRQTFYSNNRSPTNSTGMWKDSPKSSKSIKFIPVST

As to `Cc1cc(C(=O)N2Cc3cnn(C)c3Nc3ccccc32)ccc1CNC(=O)N1CCC[C@H]1C(=S)N(C)C`, the Activity entry in data set [1] is recorded as “Toxic”; in data set [2], “Toxic”; in data set [8] it was “Toxic”; in data set [10], “Non-Toxic”; in data set [14], “Non-Toxic”. Besides, the IC50 is 2200 nM in data set [3]; 5900 nM in data set [5]; “Not Active” in data set [11]; “Not Active” in [19]; “Not Active” in data set [20]. The result in data set [4] and in [7] was inactive. Besides, the EC50 result was “Not Active” in [6], 41 nM in data set [18], 62 nM in [21] and 18 nM in [23]. The outcome in data set [9] and in data set [24] was Active. Further, in data set [12], the inhibition lay within 5 to 10%. The Emax came out at 97% in data set [13] and 52% in data set [17]. Moreover, the AUC in [15] was found to be 399 ng·min/g. Also, the Ki in [16] was found to be 1250 nM. Besides, the logD in data set [22] stood at 2.
